Non-standard residues stand in square brackets, D forms with d. Residues, ends and D or L forms follow the SMILES beside them. *: point of attachment. Sta = CC(C)C[C@H](N)[C@@H](O)CC(=O)O; Isovaleryl = CC(C)CC(=O)*
Tested on: proteases in supernatant from the 6-fold protease deletion strain M400
Test: Protease stability of proteins spiked into supernatant of the 6-fold protease deletion strain
Type: biochemical, Trichoderma reesei
Conditions: pepstatin A 50 μM; SBTI 0.2 mg/ml; pH 4.2, 20 hours, 37°C
Method: The protease stability of the model proteins IGF1, hGH, and IFNα2b were analyzed by spiking them into supernatant from the 6-fold protease deletion strain (Δpep1Δtsp1Δslp1Δgap1Δgap2Δpep4) M400. The supernatant was collected from a large shake flask culture CAH15. The undiluted supernatant from the shake flask cultivation CAH15 was incubated with the purified model proteins with and without pepstatin A (50 μM) and SBTI (0.2 mg/ml) inhibitors for 20 hours at 37° C. The 5 day culture supernatant pH was around 4.2. The reaction containing 0.05 μg μl of model protein was sampled after 20 hours. 50 mM sodium citrate pH 4.0 spiked with model proteins (0.05 g 1) was used as a buffer control.
From each reaction 10 μl was loaded into an 18% SDS PAGE gel and run for 30 minutes at 200 V. The proteins in the gel were then transferred to nitrocellulose for immunoblotting. The nitrocellulose membrane was blocked for 1 hour at room temperature with 5% milk in TBST buffer. The individual blots were probed with their specific primary antibody to detect the appropriate model protein for 1 hour at room temperature on a shaker. The mouse anti-IGF1 antibody (R&D systems #mab291) was used at 2 μg/ml diluted in TBST. The mouse anti-rhGH antibody (Abeam #ab51232) was used at 2 μg/ml diluted in TBST. The mouse anti-IFNα2b antibody (Abeam #ab9386) was used at 1 μg/ml diluted in TBST. After briefly washing the blot membranes with TBST, the secondary antibody was added for 1 hour at room temperature shaking. The secondary goat anti-mouse AP conjugated antibody (Biorad #170-6520) was diluted 1:10,000 in TBST.
This same spiking experiment as was done with MAB01 to investigate its stability in the 6 protease deletion supernatant with and without inhibitors (FIG. 43). Samples were taken as described above and immunoblotted with an anti-heavy chain AP conjugated antibody (Sigma #A3188). […] There was no obvious benefit having used inhibitors. The antibody was stable in this pH 4.2 supernatant. […]

## CC(C)CC(=O)N[C@H](C(=O)N[C@H](C(=O)N[C@@H](CC(C)C)[C@@H](O)CC(=O)N[C@@H](C)C(=O)N[C@@H](CC(C)C)[C@@H](O)CC(=O)O)C(C)C)C(C)C [pepstatin A] (Isovaleryl-VV[Sta]A[Sta]-OH)
  stabilisation of hGH, IFNα2b and IGF1 in supernatant: remarkably stabilized

— patent publication US11180767B2, “Protease deficient filamentous fungal cells and methods of use thereof” (GLYKOS FINLAND OY, priority 2012, dated 2021)
